Assay results: ChEMBL document CHEMBL3414550 (J Med Chem, 2015)
pKd, pKi: −log10 of the molar value.

How the values were obtained:
Vasopressin V1a receptor [1] = molecular target: T1, Vasopressin V1a receptor (Homo sapiens, UniProt P37288); test: Binding affinity to V1aR (unknown origin) expressed in HEK293 cells by TR-FRET assay; format: cell-based
[2] = Retention time of the compound by RP-HPLC analysis; format: physicochemical
Vasopressin V1b receptor = molecular target: T2, Vasopressin V1b receptor (Homo sapiens, UniProt P47901); test: Binding affinity to V1bR (unknown origin) expressed in HEK293 cells by TR-FRET assay; format: cell-based
T2 sequence (P47901 whole entry): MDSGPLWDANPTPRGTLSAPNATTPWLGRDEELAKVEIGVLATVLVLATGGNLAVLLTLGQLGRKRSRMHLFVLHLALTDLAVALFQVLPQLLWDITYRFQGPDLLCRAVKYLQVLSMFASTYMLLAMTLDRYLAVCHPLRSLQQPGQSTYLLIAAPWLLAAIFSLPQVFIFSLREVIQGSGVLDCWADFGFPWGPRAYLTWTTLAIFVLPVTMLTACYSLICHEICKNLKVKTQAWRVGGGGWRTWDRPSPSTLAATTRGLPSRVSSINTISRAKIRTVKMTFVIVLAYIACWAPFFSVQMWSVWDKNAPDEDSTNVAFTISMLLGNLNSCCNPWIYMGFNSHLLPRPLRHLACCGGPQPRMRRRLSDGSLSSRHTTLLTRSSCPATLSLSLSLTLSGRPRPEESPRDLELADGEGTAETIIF

Oxytocin receptor [3] = molecular target: T3, Oxytocin receptor (Homo sapiens, UniProt P30559); test: Binding affinity to SNAP-tagged oxytocin receptor (unknown origin) expressed in HEK293 cells by TR-FRET assay; format: cell-based
T3 sequence (P30559 whole entry): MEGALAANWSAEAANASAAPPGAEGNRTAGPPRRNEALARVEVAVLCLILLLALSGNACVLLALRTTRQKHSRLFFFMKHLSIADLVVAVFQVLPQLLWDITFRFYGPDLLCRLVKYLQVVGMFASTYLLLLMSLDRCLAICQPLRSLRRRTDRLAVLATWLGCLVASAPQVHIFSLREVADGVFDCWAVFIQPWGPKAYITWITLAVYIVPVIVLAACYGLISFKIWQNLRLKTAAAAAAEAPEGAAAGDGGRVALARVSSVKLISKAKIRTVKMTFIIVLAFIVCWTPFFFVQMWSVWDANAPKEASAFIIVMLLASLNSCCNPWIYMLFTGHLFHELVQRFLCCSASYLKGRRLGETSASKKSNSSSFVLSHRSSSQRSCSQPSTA

Vasopressin V2 receptor [4] = molecular target: T4, Vasopressin V2 receptor (Homo sapiens, UniProt P30518); test: Binding affinity to V2R (unknown origin) expressed in HEK293 cells by TR-FRET assay; format: cell-based
T4 sequence (P30518 whole entry): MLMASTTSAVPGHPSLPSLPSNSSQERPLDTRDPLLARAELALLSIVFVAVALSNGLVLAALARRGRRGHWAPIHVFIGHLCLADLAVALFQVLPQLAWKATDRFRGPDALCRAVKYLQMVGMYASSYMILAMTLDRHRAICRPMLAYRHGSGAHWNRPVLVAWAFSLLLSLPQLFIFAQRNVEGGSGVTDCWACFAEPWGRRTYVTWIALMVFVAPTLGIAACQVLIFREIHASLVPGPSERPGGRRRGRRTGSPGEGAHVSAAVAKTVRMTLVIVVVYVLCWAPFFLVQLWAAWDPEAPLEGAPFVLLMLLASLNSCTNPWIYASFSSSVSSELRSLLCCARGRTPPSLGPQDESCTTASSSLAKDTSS

Homo sapiens = organism: Homo sapiens; test: Selectivity ratio of Kd for V1aR (unknown origin) to Kd for SNAP-tagged oxytocin receptor (unknown origin)
Oxytocin receptor [5] = molecular target: T3, Oxytocin receptor; test: Binding affinity to SNAP-tagged oxytocin receptor (unknown origin) expressed in HEK293 cells assessed as dissociation constant after 5 to 120 mins by TR-FRET assay; format: cell-based
Oxytocin receptor [6] = molecular target: T3, Oxytocin receptor; test: Binding affinity to SNAP-tagged oxytocin receptor (unknown origin) expressed in HEK293 cells assessed as association constant after 5 to 120 mins by TR-FRET assay; format: cell-based
Oxytocin receptor [7] = molecular target: T3, Oxytocin receptor; test: Competitive binding to SNAP-tagged oxytocin receptor (unknown origin) expressed in HEK293 cells incubated for 1 hr at RT followed by 4 hrs at 4 degC by TR-FRET assay in presence of 2-(5-(3-(1-(5-(3-(2-chloro-4-fluorophenoxy)azetidin-1-yl)-4-(6-methoxypyridinium-3-yl)-4H-1,2,4-triazol-3-yl)-15-oxo-2,5,8,11-tetraoxa-14-azaoctadecan-18-yl)-1-ethyl-3-methyl-5-sulfoindolin-2-ylidene)penta-1,3-dienyl)-1 …; format: cell-based
Oxytocin receptor [8] = molecular target: T3, Oxytocin receptor; test: Competitive binding to SNAP-tagged oxytocin receptor (unknown origin) expressed in HEK293 cells incubated for 1 hr at RT followed by 4 hrs at 4 degC by TR-FRET assay in presence of 5-(3-(22-(3-carboxy-4-(3-oxo-3H-xanthen-9-yl)phenyl)-15,22-dioxo-2,5,8,11-tetraoxa-14,21-diazadocosyl)-5-(3-(2-chloro-4-fluorophenoxy)azetidin-1-yl)-4H-1,2,4-triazol-4-yl)-2-methoxypyridinium 2,2,2-trifluoroacetate; format: cell-based
Vasopressin V2 receptor [9] = molecular target: T4, Vasopressin V2 receptor; test: Binding affinity to V2R (unknown origin)
Vasopressin V1a receptor [10] = molecular target: T1, Vasopressin V1a receptor; test: Binding affinity to V1aR (unknown origin)
Oxytocin receptor [11] = molecular target: T3, Oxytocin receptor; test: Binding affinity to OTR (unknown origin)

T1 sequence (P37288 whole entry): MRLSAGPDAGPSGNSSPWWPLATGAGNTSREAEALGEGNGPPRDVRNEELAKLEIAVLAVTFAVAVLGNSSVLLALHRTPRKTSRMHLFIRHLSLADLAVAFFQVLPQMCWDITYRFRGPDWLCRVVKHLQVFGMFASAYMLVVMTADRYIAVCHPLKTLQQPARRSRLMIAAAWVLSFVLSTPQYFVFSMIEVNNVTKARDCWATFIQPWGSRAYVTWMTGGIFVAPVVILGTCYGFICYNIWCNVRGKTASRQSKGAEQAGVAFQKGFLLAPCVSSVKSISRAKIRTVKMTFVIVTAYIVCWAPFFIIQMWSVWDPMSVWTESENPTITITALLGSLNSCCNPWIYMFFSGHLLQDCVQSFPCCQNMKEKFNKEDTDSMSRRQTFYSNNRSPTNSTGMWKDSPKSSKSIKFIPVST

Row | SMILES | pKd (Vasopressin V1a receptor [1]) | Retention_time [2] [min] | pKd (Vasopressin V1b receptor) | pKd (Oxytocin receptor [3]) | pKd (Vasopressin V2 receptor [4]) | Ratio (Homo sapiens) | koff (Oxytocin receptor [5]) [×10⁻³ /min] | kon (Oxytocin receptor [6]) [×10⁶ /M/min] | pKi (Oxytocin receptor [7]) | pKi (Oxytocin receptor [8]) | pKi (Vasopressin V2 receptor [9]) | pKi (Vasopressin V1a receptor [10]) | pKi (Oxytocin receptor [11])
1 | O=C(CCCCCNC(=O)c1ccc(-c2c3ccc(=O)cc-3oc3cc(O)ccc23)c(C(=O)O)c1)NCCNC(=O)CCc1ccc(S(=O)(=O)N(CC(=O)N/N=C2\C(=O)Nc3ccccc32)c2ccc(Cl)cc2)cc1 | 7.21 | 4.68 | < 6.00 | 8.76 | 6.87 | 35 | – | – | – | – | – | – | –
2 | CCN1\C(=C/C=C/C=C/C2=[N+](CC)c3cc(S(=O)(=O)[O-])ccc3C2(C)C)C(C)(CCCC(=O)ON2C(=O)CCC2=O)c2cc(S(=O)(=O)O)ccc21 (stereo not drawn) | – | 3.17 | – | – | – | – | – | – | – | – | – | – | –
3 | Cc1ccn(Cc2ccc(C(=O)N3Cc4cnn(C)c4Nc4ccccc43)cc2C)n1 | – | – | – | – | – | – | – | – | 8.18 | 8.21 | 6.04 | 7.74 | 7.56
4 | CCN1\C(=C/C=C/C=C/C2=[N+](CC)c3cc(S(=O)(=O)[O-])ccc3C2(C)C)C(C)(CCCC(=O)NCCNC(=O)CCc2ccc(S(=O)(=O)N(CC(=O)N/N=C3\C(=O)Nc4ccccc43)c3ccc(Cl)cc3)cc2)c2cc(S(=O)(=O)O)ccc21 (stereo not drawn) | 7.71 | 3.96 | < 6.00 | 8.86 | 7.52 | 14 | – | – | – | – | – | – | –
5 | O=C(CCCCCNC(=O)c1ccc2c(c1)C(=O)OC21c2ccc(O)cc2Oc2cc(O)ccc21)ON1C(=O)CCC1=O | – | 4 | – | – | – | – | – | – | – | – | – | – | –

Results, then the compound that gave them:

Row | pKd (Vasopressin V1a receptor [1]) | Retention_time [2] [min] | pKd (Vasopressin V1b receptor) | pKd (Oxytocin receptor [3]) | pKd (Vasopressin V2 receptor [4]) | Ratio (Homo sapiens) | koff (Oxytocin receptor [5]) [×10⁻³ /min] | kon (Oxytocin receptor [6]) [×10⁶ /M/min] | pKi (Oxytocin receptor [7]) | pKi (Oxytocin receptor [8]) | pKi (Vasopressin V2 receptor [9]) | pKi (Vasopressin V1a receptor [10]) | pKi (Oxytocin receptor [11]) | SMILES
6 | < 6.00 | 4.38 | < 6.00 | 8.80 | < 6.00 | – | 18.9 | 3.57 | – | – | – | – | – | COc1ccc(-n2c(COCCOCCOCCOCCNC(=O)CCCCCNC(=O)c3ccc(-c4c5ccc(=O)cc-5oc5cc(O)ccc45)c(C(=O)O)c3)nnc2N2CC(Oc3ccc(F)cc3Cl)C2)cn1.O=C(O)C(F)(F)F
7 | < 6.00 | 3.94 | < 6.00 | 8.80 | 6.29 | – | 10.9 | 4.03 | – | – | – | – | – | CCN1\C(=C/C=C/C=C/C2=[N+](CC)c3cc(S(=O)(=O)[O-])ccc3C2(C)C)C(C)(CCCC(=O)NCCOCCOCCOCCOCc2nnc(N3CC(Oc4ccc(F)cc4Cl)C3)n2-c2ccc(OC)nc2)c2cc(S(=O)(=O)O)ccc21.O=C(O)C(F)(F)F (stereo not drawn)
8 | < 6.00 | 3.97 | < 6.00 | 8.73 | 6.45 | – | – | – | – | – | – | – | – | CCN1\C(=C/C=C/C=C/C2=[N+](CC)c3cc(S(=O)(=O)[O-])ccc3C2(C)C)C(C)(CCCC(=O)NCCOCCOCCOCCOCCOCCOCCOCCOCc2nnc(N3CC(Oc4ccc(F)cc4Cl)C3)n2-c2ccc(OC)nc2)c2cc(S(=O)(=O)O)ccc21.O=C(O)C(F)(F)F (stereo not drawn)
9 | < 6.00 | 4.39 | < 6.00 | 8.69 | < 6.00 | – | – | – | – | – | – | – | – | COc1ccc(-n2c(COCCOCCOCCOCCOCCOCCOCCOCCNC(=O)CCCCCNC(=O)c3ccc(-c4c5ccc(=O)cc-5oc5cc(O)ccc45)c(C(=O)O)c3)nnc2N2CC(Oc3ccc(F)cc3Cl)C2)cn1.O=C(O)C(F)(F)F
